From patent publication US7186701B2, “Dehydrating agent and method for dehydrating moist article using the agent and dehydrated article obtained by the method” (Kabushiki Kaisha Hayashibara Seibutsu Kagaku Kenkyujo, priority 2001, dated 2007)

Experiments:
[1] = tested on: α-isomaltosylglucosaccharide-forming enzyme; experiment: Specificity of transfer acceptor (C11 enzyme); format: biochemical, Bacillus globisporus C11 strain; parameters: key: −: no saccharide-transferred product was detected through transferring reaction to acceptor; ±: a saccharide-transferred product was detected in an amount of less than one percent through transfer reaction to acceptor; +: a saccharide-transferred product was detected in an amount of at least one percent but less than ten percent through transferring reaction to acceptor; ++: a saccharide-transferred product was detected in an amount of at least ten percent through transferring reaction to acceptor; details: acceptor 1.6%, PINE-DEX #100 donor 4%, one unit/g donor, 30° C., pH 6.0, 24 hours
Protocol: (§1) A variety of saccharides were tested whether they could be used as transferring-acceptors for the α-isomaltosylglucosaccharide-forming enzyme. A solution of D-glucose, D-xylose, L-xylose, D-galactose, D-fructose, D-mannose, D-arabinose, D-fucose, L-sorbose, L-rhamnose, methyl-α-glucopyranoside, methyl-β-glucopyranoside, N-acetyl-glucosamine, sorbitol, α,α-trehalose, isomaltose, isomaltotriose, cellobiose, gentibiose, maltitol, lactose, sucrose, α-cyclodextrin, β-cyclodextrin, or γ-cyclodextrin was prepared. […] The reaction mixtures after the enzymatic reactions were analyzed on gas chromatography (abbreviated as “GLC” hereinafter) for monosaccharides and disaccharides as acceptors, and on HPLC for trisaccharides and higher saccharides as acceptors to confirm whether these saccharides could be used as their transfer acceptors. In the case of performing GLC, the following apparatuses and conditions were used: […] In the case of HPLC analysis, the apparatuses and conditions used were: HPLC apparatus, “CCPD” commercialized by Tosoh Corporation, Tokyo, Japan; column, “ODS-AQ-303” commercialized by YMC Co., Ltd., Tokyo, Japan; eluent, water at a flow rate of 0.5 ml/min; and detection, a differential refractometer.

[2] = tested on: α-isomaltosylglucosaccharide-forming enzyme; experiment: Specificity of transfer acceptor (C9 enzyme); format: biochemical, Bacillus globisporus C9 strain; parameters: key: −: no saccharide-transferred product was detected through transferring reaction to acceptor; ±: a saccharide-transferred product was detected in an amount of less than one percent through transfer reaction to acceptor; +: a saccharide-transferred product was detected in an amount of at least one percent but less than ten percent through transferring reaction to acceptor; ++: a saccharide-transferred product was detected in an amount of at least ten percent through transferring reaction to acceptor; details: acceptor 1.6%, PINE-DEX #100 donor 4%, one unit/g donor, 30° C., pH 6.0, 24 hours
Protocol: as §1

[3] = Dehydrating action: moisture absorption on standing at controlled relative humidity; format: physicochemical; details: relative humidity of 75%
Source text: Anhydrous crystalline cyclotetrasaccharide; crystalline cyclotetrasaccharide, monohydrate; anhydrous amorphous cyclotetrasaccharide; and crystalline cyclotetrasaccharide, penta- or hexa-hydrate were experimented in detail on their dehydrating actions, particularly, moisture absorption abilities against saccharides and changes on standing. As a control, anhydrous crystalline α,α-trehalose, anhydrous amorphous α,α-trehalose, and crystalline α,α-trehalose, dihydrate, were used as saccharides. The experiments were as follows: […]

| SMILES | Product of saccharide transferring reaction, Enzyme of C11 strain [1] | Product of saccharide transferring reaction, Enzyme of C9 strain [2] | moisture absorption level, % of its weight [3] [%] |
| --- | --- | --- | --- |
| OC[C@H]1O[C@@](CO)(O[C@H]2O[C@H](CO)[C@@H](O)[C@H](O)[C@H]2O)[C@@H](O)[C@@H]1O [Sucrose, sucrose] | ++ (a saccharide-transferred product was detected in an amount of at least ten percent through transferring reaction to acceptor) | ++ (a saccharide-transferred product was detected in an amount of at least ten percent through transferring reaction to acceptor) |  |
| OC[C@H]1O[C@H](O[C@H]2O[C@H](CO)[C@@H](O)[C@H](O)[C@H]2O)[C@H](O)[C@@H](O)[C@@H]1O [α,α-Trehalose, α,α-trehalose, reference compound] | ++ (a saccharide-transferred product was detected in an amount of at least ten percent through transferring reaction to acceptor) | ++ (a saccharide-transferred product was detected in an amount of at least ten percent through transferring reaction to acceptor) | ≤ 10 |
| OC[C@H]1O[C@@H]2O[C@H]3[C@H](O)[C@@H](O)[C@@H](O[C@H]4[C@H](O)[C@@H](O)[C@@H](O[C@H]5[C@H](O)[C@@H](O)[C@@H](O[C@H]6[C@H](O)[C@@H](O)[C@@H](O[C@H]7[C@H](O)[C@@H](O)[C@@H](O[C@H]1[C@H](O)[C@H]2O)O[C@@H]7CO)O[C@@H]6CO)O[C@@H]5CO)O[C@@H]4CO)O[C@@H]3CO [α-Cyclodextrin, α-cyclodextrin] | − | − |  |

The next lines start with the values.

| Product of saccharide transferring reaction, Enzyme of C11 strain [1] | Product of saccharide transferring reaction, Enzyme of C9 strain [2] | moisture absorption level, % of its weight [3] [%] | SMILES |
| --- | --- | --- | --- |
| − | − |  | OC[C@H]1O[C@@H]2O[C@H]3[C@H](O)[C@@H](O)[C@@H](O[C@H]4[C@H](O)[C@@H](O)[C@@H](O[C@H]5[C@H](O)[C@@H](O)[C@@H](O[C@H]6[C@H](O)[C@@H](O)[C@@H](O[C@H]7[C@H](O)[C@@H](O)[C@@H](O[C@H]8[C@H](O)[C@@H](O)[C@@H](O[C@H]1[C@H](O)[C@H]2O)O[C@@H]8CO)O[C@@H]7CO)O[C@@H]6CO)O[C@@H]5CO)O[C@@H]4CO)O[C@@H]3CO [β-Cyclodextrin, β-cyclodextrin] |
| − | − |  | OC[C@H]1O[C@@H]2O[C@H]3[C@H](O)[C@@H](O)[C@@H](O[C@H]4[C@H](O)[C@@H](O)[C@@H](O[C@H]5[C@H](O)[C@@H](O)[C@@H](O[C@H]6[C@H](O)[C@@H](O)[C@@H](O[C@H]7[C@H](O)[C@@H](O)[C@@H](O[C@H]8[C@H](O)[C@@H](O)[C@@H](O[C@H]9[C@H](O)[C@@H](O)[C@@H](O[C@H]1[C@H](O)[C@H]2O)O[C@@H]9CO)O[C@@H]8CO)O[C@@H]7CO)O[C@@H]6CO)O[C@@H]5CO)O[C@@H]4CO)O[C@@H]3CO [γ-Cyclodextrin, γ-cyclodextrin] |
